Source: US9018370B2, “Derivatives of uridine phosphate and their uses in protein binding assays” (King's College London of Strand, priority 2009, dated 2015)

Tests used:
[1] = Lakowicz, Principles of Fluorescence Spectroscopy; cited from earlier work
[2] = Quantum yield determination of nucleotide derivatives; format: physicochemical; settings: for Quantum yield of reference compounds determined with this protocol: in H2O; for Q.Y.: in water
Protocol: Nucleotide derivatives were serially diluted in H2O (10, 20, 30, 40 and 50 μM for absorbance measurements, and 0.2, 0.4, 0.6, 0.8, 1 μM for fluorescence measurements), and UV absorbance and fluorescence emission (with λmax absorbance=λem fluorescence) were recorded for all samples. To determine quantum yields, for each absorbance and fluorescence spectrum the area under the curve (AUC) was calculated by numerical integration, applying the mid-point rule. For each compound, AUCabs and AUCem were then plotted over compound concentration according to AUCabs=A×[conc]+B and AUCem=A′×[conc]+B′. From these linear plots, the gradients A and A′ were extracted, and for each compound the specific quantum yield φs, under these experimental conditions, was calculated as the ratio A′/A. Quantum yields determined with this protocol for two reference compounds, 2-aminopyridine and L-tryptophan (2-aminopyridine: 0.60; L-tryptophan: 0.14) were in exact agreement with literature values. The quantum yields for reference compounds were used to calculate the general quantum yield φg for each nucleotide analogue, according to φg=φref×(A′/A)/(A′/A)ref.
Fluorescent uracil nucleosides and (sugar-)nucleotides can be obtained by connecting a known chromophore/fluorophore via an electronically nonconjugating linker to the natural uracil base (Sinkeldam et al. Chem. Rev. 2010, 110, 2579-2619). The photophysical features of the resulting nucleoside/(sugar-)nucleotide analogue are usually very similar to that of the parent fluorophore (Sinkeldam et al. Chem. Rev. 2010, 110, 2579-2619). In contrast, extending the uracil by electronically conjugating the base to additional aromatic moieties typically generates a new chromophore with unique, and somewhat unpredictable, photophysical characteristics (Sinkeldam et al. Chem. Rev. 2010, 110, 2579-2619). To precisely measure the intensity of the fluorescence emitted by the brightest fluorophores described above, we determined their quantum yield. These measurements were performed in water following the procedure reported by Nighswander-Remper and the results are shown in Table B below. Quantum yield determinations confirmed that 2p and 2q display the highest fluorescence and are 10-fold brighter than any other nucleotide analogues with a compact aryl- or heteroaryl substituent in position 5 that have been reported to date (Sinkeldam et al. Chem. Rev. 2010, 110, 2579-2619). That 2p and 2q absorb and fluoresce at long wavelength is an attractive feature, which makes these fluorophores suitable for analyses in biological environments. Additionally, we found the intensity of the fluorescence emission is conserved for UDP and UTP analogues, thereby providing attractive fluorescence probes candidates for fluorimetric assays.

[3] = target: T1, Streptococcus thermophilus UDP-Gal 4′-epimerase (GalE) (Streptococcus thermophilus, UniProt P21977); experiment: GalE-catalysed conversion of UDP-Gal into UDP-Glc, HPLC assay; format: biochemical
T1 construct: purchased Calbiochem
T1 sequence (P21977 whole entry): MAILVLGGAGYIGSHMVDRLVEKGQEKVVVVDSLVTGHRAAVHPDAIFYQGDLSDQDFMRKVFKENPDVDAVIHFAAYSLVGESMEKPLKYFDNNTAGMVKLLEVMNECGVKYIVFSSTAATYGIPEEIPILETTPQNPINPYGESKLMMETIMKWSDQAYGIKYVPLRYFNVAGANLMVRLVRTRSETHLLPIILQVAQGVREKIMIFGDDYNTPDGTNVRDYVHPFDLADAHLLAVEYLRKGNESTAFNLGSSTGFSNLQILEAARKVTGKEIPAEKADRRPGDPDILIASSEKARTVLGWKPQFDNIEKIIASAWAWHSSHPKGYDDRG
Protocol: The reactions were stopped by cooling in dry ice. […] Km and vmax values were determined by fitting data points to a Michaelis-Menten curve using GraFit 5.0.10. […] All experiments were carried out in triplicate.

a-1.4-GalT = experiment: Titration of C-glycosidic fluorophore 2 with GalT and competition with ligands; format: binding
[4] = Influence of microenvironment (solvent) on fluorescence of 2q′; format: physicochemical
Protocol: Fluorescence intensity measurements were performed in NUNC F96 MicroWell polystyrene plates on a BMG labtech PolarStar plate reader equipped with a 350±5 nm absorbance filter and with a 430±5 nm emission filter. 10 μM solutions of 2q′ were prepared in HPLC grade water, acetonitrile and isopropanol. Sample assays with various solvent mixtures were incubated during 2 minutes at 30° C. prior to fluorescence measurement. Data were analysed with the help of GraFit version 5.0.10.
After identifying intense 5-arylated UMP fluorophores and understanding the origin of their fluorescence we investigated the influence of the microenvironment on the fluorescence signal. In order to generate a variety of microenvironments, we prepared 200 nM solutions of 5-(5-formyl-2-thiophene)-uridine 2q′ (the nucleoside analogue of 2q) in solvents varying in polarity index: (P): water (P=9), acetonitrile (MeCN, P=5.8) and isopropanol (IPA, P=3.9). We subsequently recorded absorbance and fluorescence signals for these three solutions (see FIG. 6).

Ggta1 = target: T2, Ggta1 (Bos taurus, UniProt P14769); experiment: Variation in fluorescence of 3d and analogues upon incubation with Ggta1; format: binding, B. taurus; settings: various concentrations of Ggta1
T2 construct: made in house
T2 sequence (P14769 whole entry): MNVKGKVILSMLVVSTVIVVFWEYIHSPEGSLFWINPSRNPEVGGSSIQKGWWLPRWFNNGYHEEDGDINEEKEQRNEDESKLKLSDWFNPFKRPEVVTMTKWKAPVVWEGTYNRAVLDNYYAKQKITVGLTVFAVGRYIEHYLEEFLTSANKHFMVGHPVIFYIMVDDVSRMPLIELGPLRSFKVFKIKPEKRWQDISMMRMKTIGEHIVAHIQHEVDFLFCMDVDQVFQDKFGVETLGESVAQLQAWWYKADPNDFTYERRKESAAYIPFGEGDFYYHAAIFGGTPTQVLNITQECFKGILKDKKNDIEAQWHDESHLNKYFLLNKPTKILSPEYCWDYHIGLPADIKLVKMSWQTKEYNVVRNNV
Protocol: (§1) Fluorescence intensity measurements with 3d were carried out in black NUNC F96 MicroWell polystyrene plates on a BMG labtech PolarStar microplate reader equipped with a 350±5 nm excitation filter and a 430±5 nm emission filter. The number of flashes per wells was set to 50 (gain: 2240; position delay: 0.2 s). Prior to readings, plates were incubated, with shaking, for 10 min at 30° C. (double orbital, shaking width 4 mm, 10 seconds). Results were visualised with BMG labtech data analysis software Mars 1.10 and analysed with GraFit version 5.0.10.
(§2) Samples were pipetted into the requisite wells of a black NUNC 96-well plate as shown in tables E1-E3, at the end of the description. Key: B—Tris/HCl buffer (50 mM, pH 7; 40 μL); F—fluorophore 3d (200 nM in Tris/HCl buffer; 40 μL); M—MnCl2 (10 mM in Tris/HCl buffer; […]); E—galactosyltransferase (in Tris/HCl buffer; 40 μL); I—inhibitor (in Tris/HCl buffer; 40 μL). Total volume/well: 200 μL. All experiments were carried out in triplicate, unless indicated otherwise.
We also carried out an experiment on 3d (numbered 18e in FIG. 4) and different analogues of 3d, namely the nucleoside 5h, the nucleotide 6r and nucleoside diphosphate 22d, to show their variation in fluorescence on binding to Ggta1.
The synthesis of 5h, 6r and 22d are shown below. The protocol for the microplate/fluorescence experiments was the same as in Example 2.

GTB (H. sapiens) = experiment: Titration of 3d with other GTs; format: binding
Protocol: as §1, §2
(§3) To assess the generality of this new GT assay principle, we next repeated the above experiments with another four GalTs, including mammalian and bacterial enzymes with different acceptor specificities and reaction mechanisms. […] The experimental protocol was the same as in Example 2. The amino acid sequences for four GalTs used in the experiment, i.e. LgtC (N. meningitidis), Ggta1 (B. taurus), GTB (H. sapiens) and AA(Gly)B GTB mutant (H. sapiens) or references where the sequence listings can be found are given above. The amino acid sequence for β4GalT (H. pylori) can be found above and in the following reference: Endo, T., Koizumi, S., Tabata, K. & Ozaki, A. Glycobiology 10, 809-813 (2000).

β4GalT (H. pylori) = experiment: Titration of 3d with other GTs; format: binding
Protocol: as §1, §2, §3

LgtC (N. meningitidis) = experiment: Titration of 3d with other GTs; format: binding
Protocol: as §1, §2, §3

[5] = tested on: AA(Gly)B GTB mutant (H. sapiens); experiment: Titration of 3d with other GTs; format: binding
Protocol: as §1, §2, §3

B. taurus α-1,3-GalT [6] = target: T3, B. taurus α-1,3-GalT (Bos taurus, UniProt P14769); experiment: Microplate fluorescence titration / ligand-displacement assay with fluorophore 3d; format: binding
T3 construct: made in house
T3 sequence (P14769 whole entry): as above
Protocol: The fluorescence emission of a given fluorophore is influenced by its microenvironment, although different fluorophores vary their fluorescence emissions to different extents on changing microenvironment.
as §1, §2

B. taurus α-1,3-GalT [7] = target: T3, B. taurus α-1,3-GalT; experiment: Donor kinetics of UDP-Gal derivatives with GalT, HPLC; format: biochemical; settings: MnCl2 20 mM, MOPS pH 7.2, 37° C.
Protocol: J. Am. Chem. Soc. 122, 261-1269 (2000); Rich, J. R.; Szpacenko, A.; Palcic, M. M. & Bundle, D. R. Glycosyltransferase-Catalyzed Synthesis of Thiooligosaccharides. Angew. Chem. Int. Ed. […] ChemBioChem 9, 1632-1640 (2008). […] (total volume 100 μL, all concentrations are final concentrations). The reactions were stopped by cooling in dry ice. Samples were analysed immediately by HPLC on a PerkinElmer Series 200 machine equipped with a Supelcosil LC-18-T column (5 μm, 25 cm×4.6 mm), a column oven (set to 30° C.), and a diode array detector. Each sample (injection volume 40 μL) was eluted at 1.5 mL/min with a gradient of methanol (10-30%) against 0.5 M phosphate buffer (adjusted to pH 8 with triethylamine). […] Km and vmax values were determined by fitting data points to a Michaelis-Menten curve using GraFit 5.0.10.

[8] = Quantum yield determination of UDP-Gal derivatives 3a-d; format: physicochemical
Protocol: To determine quantum yields, for each absorbance and fluorescence spectrum the area under the curve (AUC) was calculated by numerical integration, applying the mid-point rule. For each compound, AUCabs and AUCfluo were then plotted over compound concentration according to AUCabs=A×[conc]+B (equation 1) and AUCfluo=A′×[conc]+B′ (equation 2). […] The quantum yields for reference compounds were used to calculate the general quantum yield φg for each compound 3a-d, according to φg=φref×(A′/A)/(A′/A)ref.

[9] = Absorbance and fluorescence spectra of 5-R-UMP analogues; format: physicochemical; settings: for λmax: absorbance
Protocol: UV absorbance spectra were recorded on a PerkinElmer Lambda 25 UV-Vis spectrometer at ambient temperature in FarUV quartz cells (path length 1.0 cm). Fluorescence spectra were recorded on a PerkinElmer LS-45 spectrometer at ambient temperature in a quartz micro fluorescence cell (path length 1.0 cm).

Question: With Nc1ccccn1 [2-aminopyridine, reference compound] as the compound, how does the “Quantum yield, literature values of reference compounds” value [1] read?
Answer: 0.60

Question: And the “Quantum yield of reference compounds determined with this protocol” value [2]?
Answer: 0.60

Question: For O=Cc1ccc(-c2cn([C@@H]3O[C@H](COP(=O)(O)OP(=O)(O)CC[C@H]4O[C@H](CO)[C@H](O)[C@H](O)[C@H]4O)[C@@H](O)[C@H]3O)c(=O)[nH]c2=O)s1 [compound 2, Bis(sodium) [2-(α-D-galactopyranosyl)-ethylphosphono]-5-(5-formylthien-2-yl)uridin-5′-yl phosphate], which Ki ([3]; Dixon plot, 232 μM UDP-Gal) is on record?
Answer: 426 µM

Question: And the “Use as substrate by GalE” value ([3]; co-incubation, HPLC)?
Answer: does not use 2 as a substrate

Question: And the “Fluorescence of 2 upon titration with GalT” value (a-1.4-GalT)?
Answer: quenched upon titration with a bacterial GalT

Question: Which “Fluorescence in water relative to MeCN” value ([4]; 200 nM solutions) does the source give for O=Cc1ccc(-c2cn([C@@H]3O[C@H](CO)[C@@H](O)[C@H]3O)c(=O)[nH]c2=O)s1 [2q′, 5-(5-Formylthien-2-yl)-uridine] here?
Answer: 20 fold

Question: What about the “Absorbance on change of solvent” value ([4]; water, MeCN, IPA) of the same compound?
Answer: unaffected by a change in microenvironment

Question: With O=Cc1ccc(-c2cn([C@@H]3O[C@H](COP(=O)(O)OP(=O)(O)O[C@H]4O[C@H](CO)[C@H](O)[C@H](O)[C@H]4O)[C@@H](O)[C@H]3O)c(=O)[nH]c2=O)s1 [3d, 5-(5-Formylthien-2-yl)-UDP-α-D-galactose] as the compound, how does the “Variation in fluorescence on binding to Ggta1” value (Ggta1) read?
Answer: varied their intensity of luminescence with Ggta1

Question: And the “Fluorescence of 3d with enzyme” value (GTB (H. sapiens))?
Answer: strong fluorescence quenching effect

Question: What about the “Fluorescence of 3d with enzyme” value (β4GalT (H. pylori)) of the same compound?
Answer: strong fluorescence quenching effect

Question: And the “Fluorescence of 3d with enzyme” value (LgtC (N. meningitidis))?
Answer: strong fluorescence quenching effect

Question: And the “Fluorescence of 3d with enzyme” value [5]?
Answer: strong fluorescence quenching effect

Question: What about the “Fluorescence of 3d upon titration with enzyme” value (B. taurus α-1,3-GalT [6]; in the absence of Mn^2+) of the same compound?
Answer: little or no fluorescence quenching

Question: And the “Fluorescence of 3d upon titration with enzyme” value (B. taurus α-1,3-GalT [6]; in the presence of MnCl2, 200 nM ligand, Tris pH 7)?
Answer: quenched in the presence of enzyme in a concentration-dependent manner

Question: What about the Km (B. taurus α-1,3-GalT [7]) of the same compound?
Answer: 13 ± 1 µM

Question: And the kcat (B. taurus α-1,3-GalT [7])?
Answer: 0.0019 s⁻¹

Question: What about the “Fluorescence (in words)” value [8] of the same compound?
Answer: much more strongly fluorescent

Question: And the “Quantum yield relative to that of 3a” value [8]?
Answer: 25 fold

Question: And the “Quantum yield relative to that of the parent UDP-Gal” value [8]?
Answer: ~6000 fold

Question: And the Quantum yield ([8]; in H2O)?
Answer: 0.26

Question: Which “Variation in fluorescence on binding to Ggta1” value (Ggta1) does the source give for O=Cc1ccc(-c2cn([C@@H]3O[C@H](COP(=O)(O)O)[C@@H](O)[C@H]3O)c(=O)[nH]c2=O)s1 [2q, 5-(5-Formylthien-2-yl)-uridine-5′-monophosphate] here?
Answer: varied their intensity of luminescence with Ggta1

Question: What about the “Fluo Intensity at 100 μM” value ([9]; 100 μM) of the same compound?
Answer: >650 a.u.

Question: What about the λmax [9] of the same compound?
Answer: 351 nm

Question: What about the Emmax ([9]; fluorescence emission) of the same compound?
Answer: 434 nm

Question: And the “Brightness relative to any other reported 5-aryl/heteroaryl nucleotide analogues” value [2]?
Answer: 10 fold

Question: And the Q.Y. [2]?
Answer: 0.26

Question: Which results are given for O=c1ccn([C@@H]2O[C@H](COP(=O)(O)OP(=O)(O)O)[C@@H](O)[C@H]2O)c(=O)[nH]1 [UDP, reference compound]?
Answer: Fluorescence of 3d upon titration with competitive ligand (B. taurus α-1,3-GalT [6]; 3d and α-1.3-GalT present): restored; Reversal of fluorescence quenching of 2 by titration with ligand (a-1.4-GalT): reversed

Question: Which “Quantum yield, literature values of reference compounds” value [1] does the source give for N[C@@H](Cc1c[nH]c2ccccc12)C(=O)O [L-tryptophan, reference compound] here?
Answer: 0.14

Question: And the “Quantum yield of reference compounds determined with this protocol” value [2]?
Answer: 0.14

Question: Which results are given for O=c1ccn([C@@H]2O[C@H](COP(=O)(O)O)[C@@H](O)[C@H]2O)c(=O)[nH]1 [UMP, reference compound]?
Answer: λmax [9]: 262 nm; Reversal of fluorescence quenching of 2 by titration with ligand (a-1.4-GalT): to a lesser extent; Q.Y. [2]: 5e-05
